Several values for one entry are separate records, joined by “and”; a condition that tells them apart may be missing. Identical values can stand only once.
System: NCI-H196 SCLC complex tumor spheroid viability
Experiment: Anticancer human tumor NCI-H196 cell line growth inhibition;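 note: spheroids exposed to compounds for 7 days before readout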;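 for viability, T/C: 100% = DMSO vehicle control wells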
Conditions: for viability, T/C: stronger effect = lower value
Method in brief: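 Single agents and combinations were tested on spheroids built from tumor cells plus HUVEC and hMSC, at half-log dilutions starting at or near clinical Cmax, else 10 microM; final DMSO 0.25% (v/v).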

## COc1cc2c(cc1O)CCNC21CSC2c3c(OC(C)=O)c(C)c4c(c3C(COC1=O)N1C(O)C3Cc5cc(C)c(OC)c(O)c5C(C21)N3C)OCO4 (stereo not drawn)
Compound 30 pM
  viability, T/C: 103% [middle of 10 runs]
Compound 94.9 pM
  viability, T/C: 105% [middle of 10 runs]
Compound 0.0003 µM
  viability, T/C: 103% [middle of 10 runs]
Compound 0.000949 µM
  viability, T/C: 84.7% [middle of 10 runs]
Compound 0.003 µM
  viability, T/C: 7.79% [middle of 10 runs]
Compound alone, run of 12/16/2019
  IC50: 1.62 nM [middle of 8 runs]

## Cn1ncnc1[C@H]1c2n[nH]c(=O)c3cc(F)cc(c23)N[C@@H]1c1ccc(F)cc1 + COc1cc2c(cc1O)CCNC21CSC2c3c(OC(C)=O)c(C)c4c(c3C(COC1=O)N1C(O)C3Cc5cc(C)c(OC)c(O)c5C(C21)N3C)OCO4
Curve of first compound, second compound 30 pM
  IC50: > 3 µM
Curve of first compound, second compound 94.9 pM
  IC50: > 3 µM
Curve of first compound, second compound 0.0003 µM
  IC50: > 3 µM
Curve of first compound, second compound 0.000949 µM
  IC50: > 3 µM
Curve of first compound, second compound 0.003 µM
  IC50: < 0.00949 µM
Second compound 30 pM, first compound 0.00949 µM
  viability, T/C: 100%
Second compound 30 pM, first compound 0.03 µM
  viability, T/C: 99.3%
Second compound 30 pM, first compound 0.0949 µM
  viability, T/C: 98.6%
Second compound 30 pM, first compound 0.3 µM
  viability, T/C: 97%
Second compound 30 pM, first compound 0.949 µM
  viability, T/C: 94.6%
Second compound 30 pM, first compound 3 µM
  viability, T/C: 92.4%
Second compound 94.9 pM, first compound 0.00949 µM
  viability, T/C: 99.3%
Second compound 94.9 pM, first compound 0.03 µM
  viability, T/C: 99.3%
Second compound 94.9 pM, first compound 0.0949 µM
  viability, T/C: 98.8%
Second compound 94.9 pM, first compound 0.3 µM
  viability, T/C: 98.6%
Second compound 94.9 pM, first compound 0.949 µM
  viability, T/C: 92.7%
Second compound 94.9 pM, first compound 3 µM
  viability, T/C: 99%
Second compound 0.0003 µM, first compound 0.00949 µM
  viability, T/C: 102%
Second compound 0.0003 µM, first compound 0.03 µM
  viability, T/C: 97.5%
Second compound 0.0003 µM, first compound 0.0949 µM
  viability, T/C: 101%
Second compound 0.0003 µM, first compound 0.3 µM
  viability, T/C: 93.5%
Second compound 0.0003 µM, first compound 0.949 µM
  viability, T/C: 92.2%
Second compound 0.0003 µM, first compound 3 µM
  viability, T/C: 87.7%
Second compound 0.000949 µM, first compound 0.00949 µM
  viability, T/C: 92.3%
Second compound 0.000949 µM, first compound 0.03 µM
  viability, T/C: 85.1%
Second compound 0.000949 µM, first compound 0.0949 µM
  viability, T/C: 82%
Second compound 0.000949 µM, first compound 0.3 µM
  viability, T/C: 92.4%
Second compound 0.000949 µM, first compound 0.949 µM
  viability, T/C: 87%
Second compound 0.000949 µM, first compound 3 µM
  viability, T/C: 71.2%
Second compound 0.003 µM, first compound 0.00949 µM
  viability, T/C: 6.21%
Second compound 0.003 µM, first compound 0.03 µM
  viability, T/C: 7.26%
Second compound 0.003 µM, first compound 0.0949 µM
  viability, T/C: 4.58%
Second compound 0.003 µM, first compound 0.3 µM
  viability, T/C: 3.69%
Second compound 0.003 µM, first compound 0.949 µM
  viability, T/C: 2.82%
Second compound 0.003 µM, first compound 3 µM
  viability, T/C: 1.01%

## CC1COCCN1c1cc(-c2ccnn2C)c2ccnc(-c3ccn[nH]3)c2n1 (stereo not drawn) + Cn1nnc2c(C(N)=O)ncn2c1=O
Curve of first compound, second compound 1 µM
  IC50: 2.82 µM
Curve of first compound, second compound 3.16 µM
  IC50: 2.15 µM
Curve of first compound, second compound 10 µM
  IC50: 7.34 µM
Curve of first compound, second compound 31.6 µM
  IC50: 4.44 µM
Curve of first compound, second compound 100 µM
  IC50: 3.49 µM
Second compound 1 µM, first compound 0.0316 µM
  viability, T/C: 84.8%
Second compound 1 µM, first compound 0.1 µM
  viability, T/C: 77.5%
Second compound 1 µM, first compound 0.316 µM
  viability, T/C: 61.2%
Second compound 1 µM, first compound 1 µM
  viability, T/C: 59.5%
Second compound 1 µM, first compound 3.16 µM
  viability, T/C: 48.1%
Second compound 1 µM, first compound 10 µM
  viability, T/C: 44.4%
Second compound 3.16 µM, first compound 0.0316 µM
  viability, T/C: 92.6%
Second compound 3.16 µM, first compound 0.1 µM
  viability, T/C: 77.7%
Second compound 3.16 µM, first compound 0.316 µM
  viability, T/C: 62.2%
Second compound 3.16 µM, first compound 1 µM
  viability, T/C: 56.7%
Second compound 3.16 µM, first compound 3.16 µM
  viability, T/C: 44.1%
Second compound 3.16 µM, first compound 10 µM
  viability, T/C: 47.3%
Second compound 10 µM, first compound 0.0316 µM
  viability, T/C: 98.3%
Second compound 10 µM, first compound 0.1 µM
  viability, T/C: 85.4%
Second compound 10 µM, first compound 0.316 µM
  viability, T/C: 75.7%
Second compound 10 µM, first compound 1 µM
  viability, T/C: 58.2%
Second compound 10 µM, first compound 3.16 µM
  viability, T/C: 54%
Second compound 10 µM, first compound 10 µM
  viability, T/C: 48.8%
Second compound 31.6 µM, first compound 0.0316 µM
  viability, T/C: 95.2%
Second compound 31.6 µM, first compound 0.1 µM
  viability, T/C: 85.5%
Second compound 31.6 µM, first compound 0.316 µM
  viability, T/C: 71.4%
Second compound 31.6 µM, first compound 1 µM
  viability, T/C: 59.6%
Second compound 31.6 µM, first compound 3.16 µM
  viability, T/C: 51.6%
Second compound 31.6 µM, first compound 10 µM
  viability, T/C: 46.6%
Second compound 100 µM, first compound 0.0316 µM
  viability, T/C: 90.3%
Second compound 100 µM, first compound 0.1 µM
  viability, T/C: 76.8%
Second compound 100 µM, first compound 0.316 µM
  viability, T/C: 69.9%
Second compound 100 µM, first compound 1 µM
  viability, T/C: 57.9%
Second compound 100 µM, first compound 3.16 µM
  viability, T/C: 49.7%
Second compound 100 µM, first compound 10 µM
  viability, T/C: 44.8%

## Cc1cc(C)c(CNC(=O)c2cc(-c3ccc(CN4CCOCC4)cc3)cc3c2cnn3C2CCCC2)c(=O)[nH]1
Compound 0.0316 µM
  viability, T/C: 104% and 97.2% and 99.1%
Compound 0.1 µM
  viability, T/C: 96.1% and 97.9% and 103%
Compound 0.316 µM
  viability, T/C: 93.3% and 97% and 102%
Compound 1 µM
  viability, T/C: 91.3% and 96.2% and 98.9%
Compound 3.16 µM
  viability, T/C: 101% and 94% and 103%
Compound 10 µM
  viability, T/C: 106% and 103% and 111%
Curve of compound
  IC50: > 10 µM
